A short description of series [1]: Molybdenum concentration of aqueous solutions/supernatants measured by ICP-AES versus calculated values (FIGS. 5 and 6). The series is classed as physicochemical. The settings on record: water, FIG. 6. The protocol:
Similarly, aqueous solutions of the slightly-soluble molybdenum-containing substances (as indicated by “Slightly-soluble” in the column “Water solubility” in Table 1) in varying concentrations were prepared. […] In particular, ammonium molybdophosphate (MoPNH), which is a salt of a heteroacid, stops dissolving at a molybdenum amount of approximately 0.2 mM or higher, and can therefore be kept at an especially low concentration.

The subject of series [2] is sulfide ion generation. The series can be described thus: Inhibition of sulfide ion generation, paddy seeds covered with slightly-soluble substances (Example 2-3, FIG. 9). The note with it: approximately 0.1 mmol/g (per dry seeds) in terms of molybdenum or tungsten. The source says:
The water on slightly germinated seeds was lightly wiped off, and immediately after that, the seeds were put with (lightly covered with) various amounts of the slightly-soluble substances shown in Table 1. […] The number of days for which sulfide ion generation was inhibited and the proportion of seedling establishment were examined.

Series [3] relates to paddy seeds. Briefly: Possibility of growth of paddy seeds in tank farming without soil (Example 3). The settings on record: in vivo. As for the experimental part: (§1) The decay-inhibiting effect of molybdenum-containing substances in tank farming without soil was examined.
(§2) The possibility of growth and the inhibition of decay were determined in the same manner as above.

For series [4], the system named is decay of paddy seeds. Briefly: Decay-inhibiting effect in tank farming without soil (Example 3). The settings on record: seeds covered with substance, soaked two weeks in water at 30° C. As for the experimental part:
as §1, §2

Series [5] has as its system paddy rice. Briefly: Seedling establishment of coated paddy seeds planted in a paddy field (Example 4-5, FIG. 22). The series is classed as in vivo. The note with it: dry seeds coated with clay plus 0.1 mmol/g molybdenum; kept submerged, about one month after seeding; versus WITHOUT MATERIAL and oxygen generating agent (Cal); trihydrate. The protocol: Dry paddy seeds (branded as Hinohikari) were prepared.
Separately, dry seeds (WITHOUT MATERIAL) coated solely with clay containing no molybdenum were also prepared. Furthermore, dry seeds (Cal) coated with an oxygen generating agent (Calper Powder 16, Hodogaya UPL Co., Ltd.) the same weight per dry seeds were also prepared. Calper Powder 16 is an oxygen generating agent composed mainly of calcium peroxide.
These dry seeds were planted in puddled soil in a paddy field in Chikugo City, Fukuoka Prefecture, by using a simultaneous puddling and planting point sowing machine. By preparing the seeds as described above and planting them by using a point sowing machine, the amount of seeding per unit area of the paddy field can be substantially uniformed. It should be noted that prior to soil puddling, 4 g/m^2 of ammonium sulfate as nitrogen and potassium sulfate containing potassium equivalent to 8 g/m^2 as potassium oxide had been applied to the paddy field. After seeding, the seeds were kept submerged without draining the water.

Series [6] deals with soybean. The series can be described thus: Seedling establishment of soybean seeds with ammonium molybdophosphate (Example 5, FIG. 12). The note with it: 20° C. and 30° C., after two weeks. The series is classed as in vivo. As for the experimental part:
As in Example 4-1, ammonium sulfate in an equivalent amount of 10 g/m^2 in terms of nitrogen and potassium chloride equivalent to 5 g/m^2 of potassium as potassium oxide were added as a solution to paddy humid soil, on the condition that the weight of dry soil is 100 kg/m^2. The soil was placed into each container (in the shape of a cylinder approximately 7 cm in diameter) in an amount equivalent to 100 g of dry soil, shaken for approximately one hour, and left at rest for two days at 4° C. It should be noted, however, that the soil-to-liquid ratio was 0.7. On this condition, the soil surface became substantially as high as the water surface. Barley seeds (branded as Nishinochikara) and soybean seeds (branded as Fukuyutaka) not subjected to treatment such as soaking in advance were soaked in water for one minute. Immediately after the extra water was removed, the seeds were put with a […] molybdenum amount of ammonium molybdophosphate (purchased from Wako Pure Chemical Industries, Ltd.) per gram of dry seed. The seeds were then half-buried in the samples of soil. […] Six containers were allotted for each condition, and the proportion of seedling establishment (proportion of individual plants that survived) was measured after two weeks.

For series [7], the system named is barley. Briefly: Seedling establishment of barley seeds in humid soil (Example 6-1, FIG. 20a). The series is classed as in vivo. The note with it: 0.01 mmol to 0.5 mmol molybdenum per gram of dry seed, 20° C., after two weeks. As for the experimental part:
As in Example 4-1, ammonium sulfate in an equivalent amount of 10 g/m^2 in terms of nitrogen and potassium chloride equivalent to 5 g/m^2 of potassium as potassium oxide were added as a solution to paddy humid soil in terms of 100 kg/m^2 of dry soil with a soil-to-liquid ratio of 0.7. The soil was placed into each container (in the shape of a cylinder approximately 7 cm in diameter) in an amount equivalent to 100 g of dry soil. The soil surface was flattened by giving it a slight press with a flat plate. Then, the soil was left at rest for one day at 4° C. […] The seeds were then half-buried in the soil. After that, at a constant temperature of 20° C., the water level was kept by adding water to such an extent that the seeds were slightly covered with water. Six containers were allotted for each condition, and the proportion of seedling establishment (proportion of individual plants that survived) was measured after two weeks. It should be noted that in each of FIGS. 20a and 20b, the horizontal axis represents the number of moles (mmol) of molybdenum that adhered per gram of dry seed. In each of FIGS. 20a and 20b, the dots correspond to the numbers of moles of 0, 0.01, 0.02, 0.05, 0.1, 0.2, and 0.5 mmol, starting from the left. […]

Series [8] concerns soybean. Briefly: Seedling establishment of soybean seeds submerged for two days (Example 6a-1, FIG. 20e). The settings on record: 0.01 mmol to 0.5 mmol molybdenum per gram of dry seed, 25° C., versus untreated seeds. The format is in vivo. As for the experimental part:
Soil was prepared in the same manner as in Example 6-1. Next, soybean seeds (branded as Fukuyutaka) not subjected to treatment such as soaking in advance were soaked for one minute in a tenfold diluted solution of a commercially available laundry starch (manufactured by Rocket Soap Co., Ltd.; My Laundry Starch) containing approximately a little less than 10% by weight of polyvinyl alcohol. Then, the seeds were spin-dried for thirty seconds in a commercially available washing machine for removal of the extra water. […] These seeds were buried so that the upper edge of each seed was at the same height as the soil surface. In an artificially-lit (amount of light 0.4 mmol/m^2/s, lit for twelve hours per day) room at 25° C., water was added immediately after seeding so that the surface water was 15 mm high. After two days, the surface water was sucked up with a pipette for removal. Six containers were allotted for each condition, and the proportion of seedling establishment (proportion of individual plants that survived) was measured two weeks after seeding. It should be noted that in FIG. 20e, the horizontal axis represents the number of moles (mmol) of molybdenum that adhered per gram of dry seed. In FIG. 20e, the dots correspond to the numbers of moles of 0 (UNTREATED), 0.01, 0.02, 0.05, 0.1, 0.2, and 0.5 mmol, starting from the left. […]

For series [9] the following is noted: in water, powder, trihydrate, cited from earlier work.

Entries after “also recorded” stand apart in the source; their conditions may differ. Read-outs that look alike come from different tables or passages of the source.

In the case of “Triammonium 12-moblydo(VI)phosphate trihydrate [Ammonium molybdophosphate]”, the “molybdenum amount at which the substance stops dissolving” value in series [1] was “approximately 0.2 mM”. Besides, the “number of days for which sulfide ion generation was inhibited” value in series [2] is given as “fourteen”. In series [3], this substance registered a Possibility of growth, Amount of molybdenum or tungsten added to seed greater than 1 mmol/g. The “Inhibition of decay, Amount of molybdenum or tungsten added to seed” value in series [4] was less than 0.01 mmol/g. Further, the seedling establishment result in series [5] is listed as “obvious improvements in seedling establishment; also recorded: most remarkable improving effect on seedling establishment”. Besides, the “proportion of seedling establishment” value in series [6], in [7] and in series [8] was “improvements in proportion of seedling establishment” throughout. The values for the Water solubility result in series [9] (listed as ammonium molybdophosphate) and in series [9] were “slightly soluble” and “Slightly soluble (has a percentage of solubility of 10% by weight or lower with respect to water)”, respectively.
